Experimental data as given in patent US12077503B2, “Substituted cyclic amides and their use as herbicides” (FMC CORPORATION, priority 2015, dated 2024).

What was measured:
Format in all cases: in vivo
Kochia (Kochia scoparia) [1] = experiment: Test A preemergence; settings: Bassia scoparia, pre-emergence, 240 h, preemergence, read-out: Kochia plant response rating; for pest or weed control at 125 g/ha: 125 g ai/ha, 0 to 100 scale where 0 is no effect and 100 is complete control, approx. 10 d; for pest or weed control at 500 g/ha: 500 g ai/ha, visual injury rating about 10 d after treatment, 0 to 100 scale (0 no effect, 100 complete control)
Outline: (§1)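 Seeds sprayed preemergence with a directed soil spray, or plants at 2 to 10 cm height and one- to two-leaf stage sprayed postemergence, with test chemicals in a non-phytotoxic solvent mixture containing surfactant, in loam soil–sand blend. Injury rated visually against untreated controls after about 10 d in greenhouse, 0 (no effect) to 100 (complete control).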

[2] = tested on: barnyardgrass (Echinochloa crus-galli); experiment: Test A preemergence; settings: Echinochloa crus-galli, pre-emergence, 240 h; for pest or weed control at 125 g/ha: 125 g ai/ha, Preemergence, visual injury rating after approximately 10 d, read-out: Barnyardgrass plant response rating (0 to 100 scale, 0 is no effect, 100 is complete control); for pest or weed control at 500 g/ha: 500 g ai/ha, preemergence, visual injury rating about 10 d after treatment, 0 to 100 scale (0 no effect, 100 complete control), read-out: Barnyardgrass plant response rating
Outline: as §1

[3] = tested on: giant foxtail (Setaria faberii); experiment: Test A preemergence; settings: Setaria faberi, pre-emergence, 240 h; for pest or weed control at 125 g/ha: 125 g ai/ha, Preemergence, visual injury rating after approximately 10 d, read-out: Foxtail, Giant plant response rating (0 to 100 scale, 0 is no effect, 100 is complete control); for pest or weed control at 500 g/ha: 500 g ai/ha, preemergence, visual injury rating about 10 d after treatment, 0 to 100 scale (0 no effect, 100 complete control), read-out: Foxtail, Giant plant response rating
Outline: as §1

[4] = tested on: pigweed (Amaranthus retroflexus); experiment: Test A preemergence; settings: Amaranthus retroflexus, pre-emergence, 240 h, preemergence, read-out: Pigweed plant response rating; for pest or weed control at 125 g/ha: 125 g ai/ha, 0 to 100 scale where 0 is no effect and 100 is complete control, approx. 10 d; for pest or weed control at 500 g/ha: 500 g ai/ha, visual injury rating about 10 d after treatment, 0 to 100 scale (0 no effect, 100 complete control)
[5] = tested on: ragweed (common ragweed, Ambrosia elatior); experiment: Test A preemergence; settings: Ambrosia artemisiifolia, pre-emergence, 240 h, preemergence, read-out: Ragweed plant response rating; for pest or weed control at 125 g/ha: 125 g ai/ha, 0 to 100 scale where 0 is no effect and 100 is complete control, approx. 10 d; for pest or weed control at 500 g/ha: 500 g ai/ha, visual injury rating about 10 d after treatment, 0 to 100 scale (0 no effect, 100 complete control)
Outline: as §1

[6] = tested on: ryegrass, Italian (Italian ryegrass, Lolium multiflorum); experiment: Test A preemergence; settings: Lolium multiflorum, pre-emergence, 240 h, preemergence, read-out: Ryegrass, Italian plant response rating; for pest or weed control at 125 g/ha: 125 g ai/ha, 0 to 100 scale where 0 is no effect and 100 is complete control, approx. 10 d; for pest or weed control at 500 g/ha: 500 g ai/ha, visual injury rating about 10 d after treatment, 0 to 100 scale (0 no effect, 100 complete control)
Outline: as §1

[7] = tested on: Galium (catchweed bedstraw, Galium aparine); experiment: Test A postemergence; settings: Galium, post-emergence, 240 h, postemergence, read-out: Galium plant response rating; for pest or weed control at 125 g/ha: 125 g ai/ha, visual injury on 0 to 100 scale (0 no effect, 100 complete control), approx. 10 d; for pest or weed control at 500 g/ha: 500 g ai/ha, 0 to 100 scale, 0 is no effect, 100 is complete control
Outline: as §1

Kochia (Kochia scoparia) [8] = experiment: Test A postemergence; settings: Bassia scoparia, post-emergence, 240 h, postemergence, read-out: Kochia plant response rating; for pest or weed control at 125 g/ha: 125 g ai/ha, visual injury on 0 to 100 scale (0 no effect, 100 complete control), approx. 10 d; for pest or weed control at 500 g/ha: 500 g ai/ha, 0 to 100 scale, 0 is no effect, 100 is complete control
Outline: as §1

[9] = tested on: barnyardgrass (Echinochloa crus-galli); experiment: Test A postemergence; settings: Echinochloa crus-galli, post-emergence, 240 h, postemergence, read-out: Barnyardgrass plant response rating; for pest or weed control at 125 g/ha: 125 g ai/ha, visual injury on 0 to 100 scale (0 no effect, 100 complete control), approx. 10 d; for pest or weed control at 500 g/ha: 500 g ai/ha, 0 to 100 scale, 0 is no effect, 100 is complete control
Outline: as §1

[10] = tested on: blackgrass (Alopecurus myosuroides); experiment: Test A postemergence; settings: Alopecurus myosuroides, post-emergence, 240 h, postemergence, read-out: Blackgrass plant response rating; for pest or weed control at 125 g/ha: 125 g ai/ha, visual injury on 0 to 100 scale (0 no effect, 100 complete control), approx. 10 d; for pest or weed control at 500 g/ha: 500 g ai/ha, 0 to 100 scale, 0 is no effect, 100 is complete control
Outline: as §1

corn (Zea mays) = experiment: Test A postemergence; settings: Zea mays, post-emergence, 240 h, postemergence, read-out: Corn plant response rating; for plant injury at 125 g/ha: 125 g ai/ha, visual injury on 0 to 100 scale (0 no effect, 100 complete control), approx. 10 d; for plant injury at 500 g/ha: 500 g ai/ha, 0 to 100 scale, 0 is no effect, 100 is complete control
Outline: as §1

[11] = tested on: giant foxtail (Setaria faberii); experiment: Test A postemergence; settings: Setaria faberi, post-emergence, 240 h, postemergence, read-out: Foxtail, Giant plant response rating; for pest or weed control at 125 g/ha: 125 g ai/ha, visual injury on 0 to 100 scale (0 no effect, 100 complete control), approx. 10 d; for pest or weed control at 500 g/ha: 500 g ai/ha, 0 to 100 scale, 0 is no effect, 100 is complete control
Outline: as §1

[12] = tested on: pigweed (Amaranthus retroflexus); experiment: Test A postemergence; settings: Amaranthus retroflexus, post-emergence, 240 h, postemergence, read-out: Pigweed plant response rating; for pest or weed control at 125 g/ha: 125 g ai/ha, visual injury on 0 to 100 scale (0 no effect, 100 complete control), approx. 10 d; for pest or weed control at 500 g/ha: 500 g ai/ha, 0 to 100 scale, 0 is no effect, 100 is complete control
Outline: as §1

[13] = tested on: ragweed (common ragweed, Ambrosia elatior); experiment: Test A postemergence; settings: Ambrosia artemisiifolia, post-emergence, 240 h, postemergence, read-out: Ragweed plant response rating; for pest or weed control at 125 g/ha: 125 g ai/ha, visual injury on 0 to 100 scale (0 no effect, 100 complete control), approx. 10 d; for pest or weed control at 500 g/ha: 500 g ai/ha, 0 to 100 scale, 0 is no effect, 100 is complete control
Outline: as §1

[14] = tested on: ryegrass, Italian (Italian ryegrass, Lolium multiflorum); experiment: Test A postemergence; settings: Lolium multiflorum, post-emergence, 240 h, postemergence, read-out: Ryegrass, Italian plant response rating; for pest or weed control at 125 g/ha: 125 g ai/ha, visual injury on 0 to 100 scale (0 no effect, 100 complete control), approx. 10 d; for pest or weed control at 500 g/ha: 500 g ai/ha, 0 to 100 scale, 0 is no effect, 100 is complete control
Outline: as §1

[15] = tested on: wheat (Triticum aestivum); experiment: Test A postemergence; settings: Triticum aestivum, post-emergence, 240 h, postemergence, read-out: Wheat plant response rating; for plant injury at 125 g/ha: 125 g ai/ha, visual injury on 0 to 100 scale (0 no effect, 100 complete control), approx. 10 d; for plant injury at 500 g/ha: 500 g ai/ha, 0 to 100 scale, 0 is no effect, 100 is complete control
Outline: as §1

SMILES | pest or weed control at 125 g/ha (Kochia (Kochia scoparia) [1]) [%] | pest or weed control at 500 g/ha (Kochia (Kochia scoparia) [1]) [%] | pest or weed control at 125 g/ha [2] [%] | pest or weed control at 500 g/ha [2] [%] | pest or weed control at 125 g/ha [3] [%] | pest or weed control at 500 g/ha [3] [%] | pest or weed control at 125 g/ha [4] [%] | pest or weed control at 500 g/ha [4] [%] | pest or weed control at 125 g/ha [5] [%] | pest or weed control at 500 g/ha [5] [%] | pest or weed control at 125 g/ha [6] [%] | pest or weed control at 500 g/ha [6] [%] | pest or weed control at 125 g/ha [7] [%] | pest or weed control at 500 g/ha [7] [%] | pest or weed control at 125 g/ha (Kochia (Kochia scoparia) [8]) [%] | pest or weed control at 500 g/ha (Kochia (Kochia scoparia) [8]) [%] | pest or weed control at 125 g/ha [9] [%] | pest or weed control at 500 g/ha [9] [%] | pest or weed control at 125 g/ha [10] [%] | pest or weed control at 500 g/ha [10] [%] | further results
CSc1ccccc1NC(=O)C1C(=O)NCC1C=C(C)C (stereo not shown) [Compound 1055] | 0 | 0 | 0 | 0 | 0 | 0 | 0 | 0 | 0 | 0 | 0 | 0 | 0 | 0 | 0 | 0 | 0 | 0 | 0 | 0 | plant injury at 125 g/ha (corn (Zea mays)): 0%; plant injury at 500 g/ha (corn (Zea mays)): 0%; pest or weed control at 125 g/ha [11]: 0%; pest or weed control at 500 g/ha [11]: 0%; pest or weed control at 125 g/ha [12]: 0%; pest or weed control at 500 g/ha [12]: 0%; pest or weed control at 125 g/ha [13]: 0%; pest or weed control at 500 g/ha [13]: 0%; pest or weed control at 125 g/ha [14]: 0%; pest or weed control at 500 g/ha [14]: 0%; plant injury at 125 g/ha [15]: 0%; plant injury at 500 g/ha [15]: 0%
CN1CC(c2ccccc2OC(F)(F)C(F)F)C(C(=O)Nc2cccc(F)c2F)C1=O (stereo not shown) [Compound 1056] | 0 | 0 | 90 | 90 | 60 | 90 | 0 | 0 | 0 | 0 | 0 | 0 | 0 | 0 | 0 | 0 | 20 | 50 | 0 | 0 | plant injury at 125 g/ha (corn (Zea mays)): 0%; plant injury at 500 g/ha (corn (Zea mays)): 0%; pest or weed control at 125 g/ha [11]: 0%; pest or weed control at 500 g/ha [11]: 20%; pest or weed control at 125 g/ha [12]: 0%; pest or weed control at 500 g/ha [12]: 0%; pest or weed control at 125 g/ha [13]: 0%; pest or weed control at 500 g/ha [13]: 0%; pest or weed control at 125 g/ha [14]: 0%; pest or weed control at 500 g/ha [14]: 0%; plant injury at 125 g/ha [15]: 0%; plant injury at 500 g/ha [15]: 0%
